The record followed here is patent US10160747B2, “Compounds and methods for kinase modulation, and indications therefor” (Plexxikon Inc., priority 2016, dated 2018).

One test concerns the target T1, FLT3-ITD (Homo sapiens, UniProt P36888).
T1 sequence (P36888 1-993): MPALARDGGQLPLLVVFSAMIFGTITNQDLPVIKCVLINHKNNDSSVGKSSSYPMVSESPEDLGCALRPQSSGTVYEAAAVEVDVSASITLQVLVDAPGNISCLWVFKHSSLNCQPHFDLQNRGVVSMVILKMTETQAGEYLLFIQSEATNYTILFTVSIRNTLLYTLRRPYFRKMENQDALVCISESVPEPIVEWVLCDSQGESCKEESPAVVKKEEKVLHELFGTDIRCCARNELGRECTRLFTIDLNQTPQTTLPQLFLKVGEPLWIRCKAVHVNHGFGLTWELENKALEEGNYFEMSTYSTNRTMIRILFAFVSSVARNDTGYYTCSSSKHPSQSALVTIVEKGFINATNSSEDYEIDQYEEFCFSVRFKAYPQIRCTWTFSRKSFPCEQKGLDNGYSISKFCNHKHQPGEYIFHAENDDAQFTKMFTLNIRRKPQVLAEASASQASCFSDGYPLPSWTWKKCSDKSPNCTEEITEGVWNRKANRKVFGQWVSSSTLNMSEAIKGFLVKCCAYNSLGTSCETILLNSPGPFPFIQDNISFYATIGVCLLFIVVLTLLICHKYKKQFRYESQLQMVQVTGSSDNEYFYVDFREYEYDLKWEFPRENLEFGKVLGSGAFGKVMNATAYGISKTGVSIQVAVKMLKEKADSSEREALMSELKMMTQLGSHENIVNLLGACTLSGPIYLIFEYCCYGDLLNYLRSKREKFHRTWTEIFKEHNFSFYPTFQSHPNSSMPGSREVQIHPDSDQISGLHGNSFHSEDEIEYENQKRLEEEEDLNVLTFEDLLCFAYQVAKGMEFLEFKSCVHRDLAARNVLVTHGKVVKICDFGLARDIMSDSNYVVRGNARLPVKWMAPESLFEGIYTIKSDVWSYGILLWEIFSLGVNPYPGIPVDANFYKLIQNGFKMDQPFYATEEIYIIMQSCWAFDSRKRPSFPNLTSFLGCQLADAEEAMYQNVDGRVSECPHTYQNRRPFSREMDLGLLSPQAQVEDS
The test can be described thus: FLT3-ITD recombinant enzyme kinase assay (AlphaScreen). It counts as biochemical. The following applies: 8 pt; read-out: FLT3_ITD 8 pt: IC50. In short, it runs like this: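 Recombinant enzyme phosphorylated biotinylated poly(Glu4-Tyr) peptide (30 nM final) with ATP at 10 μM for FLT3-ITD and FLT3-D835Y or 100 μM for c-KIT. Phosphopeptide was detected by AlphaScreen with streptavidin donor and anti-phosphotyrosine (PY20) acceptor beads (10 μg/mL), read at 580 nm, for IC50 determination.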

Test [1] concerns MOLM-14 D835Y (endogenous FLT3 ITD and transfected FLT3 D835Y). The test can be described thus: MOLM-14 D835Y cell proliferation assay (CellTiter-Glo). Conditions: Homo sapiens, MOLM-14, 72 h; 3 d growth, GMean. It counts as cell-based. In short, it runs like this:
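Three-day proliferation at 37 °C/5% CO2 of FLT3-ITD MOLM-14 lines with D835Y or F691L mutation, seeded 1×10^4 per well. Compounds at eight points, top 1 μM final, 0.2% DMSO. ATP luminescence (CellTiter-Glo) gives IC50.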

Turning to `Cn1cc(Nc2ncc(-c3ccc(CC(=O)Nc4ccnc(C(F)(F)F)c4)c(F)c3)cn2)cn1` [Compound P-0083, 2-[2-fluoro-4-[2-[(1-methylpyrazol-4-yl)amino]pyrimidin-5-yl]phenyl]-N-[2-(trifluoromethyl)-4-pyridyl]acetamide], the IC50 (at FLT3-ITD; in test [1]) was 0.0001 to 10 µM throughout.
As to `O=C(Cc1ccc(-c2cnc(Nc3cnn(C(F)F)c3)nc2)c(F)c1)Nc1cc(C(F)(F)F)ccn1` [Compound P-0024, 2-[4-[2-[[1-(difluoromethyl)pyrazol-4-yl]amino]pyrimidin-5-yl]-3-fluoro-phenyl]-N-[4-(trifluoromethyl)-2-pyridyl]acetamide], the IC50 (on FLT3-ITD; in test [1]) was 0.0001 to 10 µM each time.
Consider `O=C(Cc1ccc(-c2cnc3c(c2)C2(CC2)C(=O)N3)cc1F)Nc1cncc(C(F)(F)F)c1` [Compound P-0064, 2-(2-fluoro-4-(2′-oxo-1′,2′-dihydrospiro[cyclopropane-1,3′-pyrrolo[2,3-b]pyridin]-5′-yl)phenyl)-N-(5-(trifluoromethyl)pyridin-3-yl)acetamide], for which the IC50 (at FLT3-ITD; in test [1]) was 0.0001 to 10 µM throughout.
As to `COc1ncc(NC(=O)Cc2ccc(-c3cnc4[nH]cc(C(=O)C5CC5)c4c3)cc2F)cc1C(F)(F)F` [Compound P-0036, 2-[4-[3-(cyclopropanecarbonyl)-1H-pyrrolo[2,3-b]pyridin-5-yl]-2-fluoro-phenyl]-N-[6-methoxy-5-(trifluoromethyl)-3-pyridyl]acetamide], the IC50 (at FLT3-ITD; in test [1]) was 0.0001 to 10 µM throughout.
Consider `COc1ncc(NC(=O)Cc2ccc(-c3cnc4[nH]c(Cl)cc4c3)cc2F)cc1C(F)(F)F` [Compound P-0038, 2-[4-(2-chloro-1H-pyrrolo[2,3-b]pyridin-5-yl)-2-fluoro-phenyl]-N-[6-methoxy-5-(trifluoromethyl)-3-pyridyl]acetamide], for which the IC50 (on FLT3-ITD; in test [1]) was 0.0001 to 10 µM throughout.
`Cc1ncc(NC(=O)Cc2ccc(-c3cnc4[nH]c(Cl)cc4c3)cc2F)cc1C(F)(F)F` [Compound P-0067, 2-[4-(2-chloro-1H-pyrrolo[2,3-b]pyridin-5-yl)-2-fluoro-phenyl]-N-[6-methyl-5-(trifluoromethyl)-3-pyridyl]acetamide]: the IC50 (on FLT3-ITD; in test [1]) was 0.0001 to 10 µM throughout.
Take `Cc1ncc(NC(=O)Cc2ccc(-c3cnc4[nH]cc(Cl)c4n3)cc2F)cc1C(F)(F)F` [Compound P-0059, 2-[4-(7-chloro-5H-pyrrolo[2,3-b]pyrazin-2-yl)-2-fluoro-phenyl]-N-[6-methyl-5-(trifluoromethyl)-3-pyridyl]acetamide]: the IC50 (on FLT3-ITD; in test [1]) was 0.0001 to 10 µM each time.
In the case of `COc1nn(C[C@H](C)O)cc1Nc1ncc(-c2ccc(CC(=O)Nc3cncc(C(F)(F)F)c3)c(F)c2)cn1` [Compound P-0050, 2-[2-fluoro-4-[2-[[1-[(2S)-2-hydroxypropyl]-3-methoxy-pyrazol-4-yl]amino]pyrimidin-5-yl]phenyl]-N-[5-(trifluoromethyl)-3-pyridyl]acetamide], the IC50 (at FLT3-ITD; in test [1]) was 0.0001 to 10 µM each time.
Regarding `O=C(Cc1ccc(-c2cnc3[nH]nc(C4CC4)c3c2)cc1F)Nc1cncc(C(F)(F)F)c1` [Compound P-0072, 2-[4-(3-cyclopropyl-1H-pyrazolo[3,4-b]pyridin-5-yl)-2-fluoro-phenyl]-N-[5-(trifluoromethyl)-3-pyridyl]acetamide], the IC50 (on FLT3-ITD; in test [1]) was 0.0001 to 10 µM in each case.
In the case of `CC(=O)c1c[nH]c2ncc(-c3ccc(CC(=O)Nc4cnc(C)c(C(F)(F)F)c4)c(F)c3)cc12` [Compound P-0063, 2-[4-(3-acetyl-1H-pyrrolo[2,3-b]pyridin-5-yl)-2-fluoro-phenyl]-N-[6-methyl-5-(trifluoromethyl)-3-pyridyl]acetamide], the IC50 (on FLT3-ITD; in test [1]) was 0.0001 to 10 µM in each case.
For `Cn1cc(Nc2ncc(-c3ccc(CC(=O)NCc4ccccn4)c(F)c3)cn2)cn1` [Compound P-0088, 2-[2-fluoro-4-[2-[(1-methylpyrazol-4-yl)amino]pyrimidin-5-yl]phenyl]-N-(2-pyridylmethyl)acetamide], the IC50 (at FLT3-ITD; in test [1]) was 0.0001 to 10 µM each time.
For the compound `Cc1ncc(NC(=O)Cc2ccc(-c3cnc4[nH]cc(F)c4c3)cc2F)cc1C(F)(F)F` [Compound P-0062, 2-[2-fluoro-4-(3-fluoro-1H-pyrrolo[2,3-b]pyridin-5-yl)phenyl]-N-[6-methyl-5-(trifluoromethyl)-3-pyridyl]acetamide], the IC50 (at FLT3-ITD; in test [1]) was 0.0001 to 10 µM in each case.
Take `COc1cncc(NC(=O)Cc2ccc(-c3cnc(Nc4cnn(C)c4)nc3)cc2F)c1` [Compound P-0086, 2-[2-fluoro-4-[2-[(1-methylpyrazol-4-yl)amino]pyrimidin-5-yl]phenyl]-N-(5-methoxy-3-pyridyl)acetamide]: the IC50 (on FLT3-ITD; in test [1]) was 0.0001 to 10 µM each time.
Take `COc1ncc(NC(=O)Cc2ccc(-c3cnc(Nc4cnn(C)c4)nc3)cc2F)cc1C(F)(F)F` [Compound P-0089, 2-[2-fluoro-4-[2-[(1-methylpyrazol-4-yl)amino]pyrimidin-5-yl]phenyl]-N-[6-methoxy-5-(trifluoromethyl)-3-pyridyl]acetamide]: the IC50 (on FLT3-ITD; in test [1]) was 0.0001 to 10 µM throughout.
Take `Cn1cc(Nc2ncc(-c3ccc(CC(=O)NCc4ccc(C(F)(F)F)nc4)c(F)c3)cn2)cn1` [Compound P-0087, 2-[2-fluoro-4-[2-[(1-methylpyrazol-4-yl)amino]pyrimidin-5-yl]phenyl]-N-[[6-(trifluoromethyl)-3-pyridyl]methyl]acetamide]: the IC50 (at FLT3-ITD; in test [1]) was 0.0001 to 10 µM each time.
Take `CC(C)(C)c1ccc(NC(=O)Cc2ccc(-c3cnc4[nH]cc(F)c4c3)cc2F)cn1` [Compound P-0043, N-(6-tert-butyl-3-pyridyl)-2-[2-fluoro-4-(3-fluoro-1H-pyrrolo[2,3-b]pyridin-5-yl)phenyl]acetamide]: the IC50 (on FLT3-ITD; in test [1]) was 0.0001 to 10 µM throughout.
On to `Cc1nn(C)cc1Nc1ncc(-c2ccc(CC(=O)Nc3cnc(C)c(C(F)(F)F)c3)c(F)c2)cn1` [Compound P-0077, 2-[4-[2-[(1,3-dimethylpyrazol-4-yl)amino]pyrimidin-5-yl]-2-fluoro-phenyl]-N-[6-methyl-5-(trifluoromethyl)-3-pyridyl]acetamide], for which the IC50 (on FLT3-ITD; in test [1]) was 0.0001 to 10 µM each time.
Turning to `Cc1ncc(NC(=O)Cc2ccc(-c3cnc(Nc4cnn5ccccc45)nc3)cc2F)cc1C(F)(F)F` [Compound P-0065, 2-(2-fluoro-4-(2-(pyrazolo[1,5-a]pyridin-3-ylamino)pyrimidin-5-yl)phenyl)-N-(6-methyl-5-(trifluoromethyl)pyridin-3-yl)acetamide], the IC50 (at FLT3-ITD; in test [1]) was 0.0001 to 10 µM in each case.
On to `Cc1ncc(NC(=O)Cc2ccc(-c3cnc(Nc4cnn(C)c4C)nc3)cc2F)cc1C(F)(F)F` [Compound P-0076, 2-[4-[2-[(1,5-dimethylpyrazol-4-yl)amino]pyrimidin-5-yl]-2-fluoro-phenyl]-N-[6-methyl-5-(trifluoromethyl)-3-pyridyl]acetamide], for which the IC50 (at FLT3-ITD; in test [1]) was 0.0001 to 10 µM in each case.
On to `Cn1cc(Nc2ncc(-c3ccc(CC(=O)Nc4cncc(C(C)(F)F)c4)c(F)c3)cn2)cn1` [Compound P-0090, N-[5-(1,1-difluoroethyl)-3-pyridyl]-2-[2-fluoro-4-[2-[(1-methylpyrazol-4-yl)amino]pyrimidin-5-yl]phenyl]acetamide], for which the IC50 (at FLT3-ITD; in test [1]) was 0.0001 to 10 µM in each case.
With `Cn1cnc(Nc2ncc(-c3cc(F)c(CC(=O)Nc4cncc(C(F)(F)F)c4)cc3F)cn2)c1` [Compound P-0078, 2-(2,5-difluoro-4-(2-((1-methyl-1H-imidazol-4-yl)amino)pyrimidin-5-yl)phenyl)-N-(5-(trifluoromethyl)pyridin-3-yl)acetamide], the IC50 (at FLT3-ITD; in test [1]) was 0.0001 to 10 µM throughout.
